Reference: the supplement of paper PMC10307832

How the values were obtained:
Assay in all cases: relative viability (nuclei count vs DMSO), 5 days (fraction); higher = more cells survive
[1] = compound: CN[C@@H]1C[C@H]2O[C@@](C)([C@@H]1OC)n1c3ccccc3c3c4c(c5c6ccccc6n2c5c31)C(=O)NC4 [Staurosporine] + CC(=O)c1c(C)c2cnc(Nc3ccc(N4CCNCC4)cn3)nc2n(C2CCCC2)c1=O [Palbociclib] (partner 0.5 µM)
Method in brief: (§1)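 For relative viability, nuclei counts in treated wells were divided by those in vehicle wells. Lung cancer cell lines had been pin-tool dosed in 1536-well plates the day after seeding and cultured for 5 days, then fixed and stained in one step (final 0.05% Triton X-100, 1% formaldehyde, 1 ug/ml Hoechst) and imaged at 4×. Doses were one drug alone or a fixed anchor-drug dose plus five library-drug doses (not always all listed) in √10 steps, and values are duplicate-plate medians.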

[2] = compound: O=c1[nH]cc(F)c(=O)[nH]1 [5-Fluorouracil] + CC(=O)c1c(C)c2cnc(Nc3ccc(N4CCNCC4)cn3)nc2n(C2CCCC2)c1=O [Palbociclib] (partner 0.5 µM)
Method in brief: as §1

Sulindac + Navitoclax = compound: CC1=C(CC(=O)O)c2cc(F)ccc2/C1=C\c1ccc([S+](C)[O-])cc1 [Sulindac] + CC1(C)CCC(c2ccc(Cl)cc2)=C(CN2CCN(c3ccc(C(=O)NS(=O)(=O)c4ccc(N[C@H](CCN5CCOCC5)CSc5ccccc5)c(S(=O)(=O)C(F)(F)F)c4)cc3)CC2)C1 [Navitoclax] (partner 0.5 µM)
Method in brief: as §1

Sulindac + AZD7762 = compound: CC1=C(CC(=O)O)c2cc(F)ccc2/C1=C\c1ccc([S+](C)[O-])cc1 [Sulindac] + NC(=O)Nc1cc(-c2cccc(F)c2)sc1C(=O)N[C@H]1CCCNC1 [AZD7762] (partner 0.2 µM)
Method in brief: as §1

Cell Line | relative viability ([1]; first compound 0.005 µM) | relative viability ([1]; first compound 0.01581 µM) | relative viability ([1]; first compound 0.05 µM) | relative viability ([1]; first compound 0.1581 µM) | relative viability ([1]; first compound 0.5 µM) | relative viability ([2]; first compound 0.02 µM) | relative viability ([2]; first compound 0.2 µM) | relative viability ([2]; first compound 0.6325 µM) | relative viability ([2]; first compound 2 µM) | relative viability (Sulindac + Navitoclax; first compound 0.08 µM) | relative viability (Sulindac + Navitoclax; first compound 0.253 µM) | relative viability (Sulindac + Navitoclax; first compound 0.8 µM) | relative viability (Sulindac + Navitoclax; first compound 2.53 µM) | relative viability (Sulindac + Navitoclax; first compound 8 µM) | relative viability (Sulindac + AZD7762; first compound 0.08 µM) | relative viability (Sulindac + AZD7762; first compound 0.253 µM) | relative viability (Sulindac + AZD7762; first compound 0.8 µM) | relative viability (Sulindac + AZD7762; first compound 2.53 µM) | relative viability (Sulindac + AZD7762; first compound 8 µM)
EMC-BAC-2 | 0.383 | 0.242 | 0.213 | 0.228 | 0.207 | 0.52 | 0.532 | 0.501 | 0.518 | 1.49 | 1.21 | 0.776 | 1.19 | 1.23 | 1.22 | 1.2 | 0.849 | 1.04 | 1.35
NCI-H1355 | 0.411 | 0.3 | 0.214 | 0.188 | 0.161 | 0.41 | 0.364 | 0.241 | 0.207 | 1.03 | 0.989 | 0.806 | 0.961 | 0.914 | 0.842 | 0.748 | 0.71 | 0.765 | 0.858
NCI-H2347 | 0.433 | 0.398 | 0.331 | 0.375 | 0.324 | 0.455 | 0.381 | 0.395 | 0.326 | 0.821 | 0.803 | 0.641 | 0.725 | 0.862 | 0.711 | 0.778 | 0.653 | 0.737 | 0.817
NCI-H1651 | 0.497 | 0.471 | 0.318 | 0.313 | 0.249 | 0.512 | 0.467 | 0.283 | 0.272 | 1.29 | 1.3 | 0.544 | 1.22 | 1.38 | 0.516 | 0.508 | 0.318 | 0.492 | 0.506
NCI-H1993 | 0.776 | 0.685 | 0.526 | 0.395 | 0.339 | 0.681 | 1.19 | 0.469 | 0.494 | 1.13 | 0.917 | 0.871 | 0.933 | 0.88 | 0.717 | 0.854 | 0.606 | 0.695 | 0.854
HCC-44 | – | – | 0.768 | 0.53 | 0.41 | 0.971 | 0.929 | 0.823 | 0.619 | 1.21 | 1.08 | 0.904 | 1.15 | 1.02 | 1.04 | 1.01 | 1.09 | 0.979 | 0.942
LOU-NH91 | 0.535 | 0.446 | 0.475 | 0.314 | 0.28 | 0.545 | 0.536 | 0.541 | 0.399 | 0.726 | 0.772 | 0.552 | 0.638 | 0.748 | 0.781 | 0.809 | 0.627 | 0.742 | 0.817
NCI-H1975 | 0.16 | 0.124 | 0.159 | 0.0883 | 0.0924 | 0.671 | 0.768 | 0.355 | 0.189 | 1.26 | 1.24 | – | 1.21 | 1.25 | 0.868 | 0.715 | 0.699 | 0.695 | 0.819
NCI-H1755 | 0.395 | 0.339 | 0.263 | 0.253 | 0.247 | 0.448 | 0.501 | 0.409 | 0.376 | 1.17 | 1.09 | 0.821 | 1.08 | 1.13 | 0.424 | 0.429 | 0.628 | 0.456 | 0.498
LK-2 | 0.798 | 0.555 | 0.49 | 0.426 | 0.287 | 0.568 | 0.618 | 0.155 | 0.257 | 1.03 | 0.91 | 0.722 | 0.768 | 0.891 | 0.456 | 0.469 | 0.318 | 0.465 | 0.414
HCC-78 | 0.502 | 0.469 | 0.462 | 0.472 | 0.464 | 0.467 | 0.529 | 0.496 | 0.451 | 0.784 | 0.716 | 0.711 | 0.71 | 0.77 | 0.614 | 0.6 | 0.557 | 0.599 | 0.722
NCI-H3122 | 0.248 | – | 0.225 | – | 0.171 | 0.216 | 0.174 | 0.175 | 0.174 | 0.913 | 0.999 | 1.01 | 0.992 | 1.05 | 1.2 | 1.08 | 1.01 | 0.968 | 0.947
HOP-62 | 0.334 | 0.194 | 0.116 | 0.106 | 0.0933 | 0.409 | 0.573 | 0.404 | 0.439 | 0.982 | 1.37 | – | 1.21 | 1.22 | 0.577 | 0.565 | 0.556 | 0.717 | 0.953
NCI-H727 | 0.649 | 0.557 | 0.5 | 0.447 | 0.443 | 0.839 | 0.685 | 0.745 | 0.607 | 0.32 | 0.385 | 0.381 | 0.416 | 0.433 | 0.575 | 0.643 | 0.473 | 0.582 | 0.616
BEN | 0.553 | 0.478 | 0.397 | 0.446 | 0.295 | 0.443 | 0.433 | 0.472 | 0.449 | 0.0725 | 0.0631 | 0.065 | 0.0775 | 0.0638 | 0.728 | 0.727 | 0.598 | 0.604 | 0.776
NCI-H460 | 0.0657 | 0.0441 | 0.0429 | 0.0284 | 0.0184 | 0.236 | 0.167 | 0.046 | 0.045 | 1.88 | 1.44 | – | 1.07 | 1.3 | 0.984 | 0.639 | 0.812 | 0.64 | 0.846
ChaGo-K-1 | 0.886 | – | 0.811 | 0.696 | 0.701 | 0.958 | 0.914 | 0.803 | 0.51 | 1.01 | 0.925 | 1.21 | 0.897 | 1.56 | 0.949 | 0.878 | 0.803 | 0.932 | 0.906
